According to US8470765B2, “Polypeptides and antibacterial or antiseptic use of same” (AnGes MG, Inc., priority 2009, dated 2013):
In brackets after ≈: the same amount, converted by molar mass. Like-named read-outs stand apart in the source and are kept apart here. No end group written: not given here.

What was measured:
[1] = system: Pseudomonas aeruginosa ATCC 27853; assay: ATP Assay (viability at 3 hours), Table 6; type: cell-based; conditions: for viability at 10 µg/mL: ATCC27853, 3 h, read-out: Pseudomonas aeruginosa ATP (viability, relative value to negative control); for Pseudomonas aeruginosa ATP (viability, relative value to negative control): 3 h, 5 μg/mL
Method in brief: (§1)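 Log-phase bacteria at about 10^5 CFU/mL final in Mueller-Hinton broth were exposed 3 h at 37 °C to peptide (solution prepared at 10 μg/mL before 1:1 mixing with inoculum). ATP (BacTiter-Glo luminescence) relative to untreated wells defined viability; two independent experiments.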

[2] = system: Escherichia coli ATCC 25922; assay: ATP Assay (viability at 3 hours), Table 6; type: cell-based; conditions: for viability at 10 µg/mL: ATCC25922, 3 h, read-out: Escherichia coli ATP (viability, relative value to negative control); for Escherichia coli ATP (viability, relative value to negative control): 3 h, 5 μg/mL
Method in brief: as §1

[3] = system: Staphylococcus aureus ATCC29213; assay: ATP Assay (viability at 3 hours), Table 6; type: cell-based; conditions: for viability at 10 µg/mL: ATCC29213, 3 h, read-out: Staphylococcus aureus ATP (viability, relative value to negative control); for Staphylococcus aureus ATP (viability, relative value to negative control): 3 h, 5 μg/mL
Method in brief: as §1

[4] = system: Pseudomonas aeruginosa 1 (clinical strain); assay: microbe, parasite or virus in culture; conditions: for MIC: Pseudomonas aeruginosa, read-out: MIC Pseudomonas aeruginosa 1
Description: (§2) Bacteria (Escherichia coli ATCC 25922, Pseudomonas aeruginosa ATCC 27853, Staphylococcus aureus ATCC29213, Klebsiella pneumoniae JCM 1662, Enterobacter cloacae JCM 1232, Enterobacter aerogenes JCM 1235 and Staphylococcus epidermidis JCM 2414) were inoculated to Mueller-Hinton broth: MHB or LB medium, and cultured at a temperature and period suited for each strain. From the thus obtained colonies, each strain was inoculated to a fresh liquid medium and cultured for 16 to 20 hours. Then an aliquot having a volume (10 to 50 appropriate to each strain was inoculated to a fresh liquid medium and cultured for 4 to 6 hours, followed by the measurement of the absorbance at 600 nm. After comparing the turbidity with McFarland #0.5, the resultant was diluted with a medium. Each strain was added to about 10^5 CFU/mL (final concentration).
(§3) Further, the antibacterial activities against the clinical strains collected and isolated from infected patients were also examined. The tests were carried out for two methicillin-resistant Staphylococcus (MRSA) (MRSA (i) and (ii)), two methicillin-sensitive Staphylococcus (MSSA) (MSSA (i) and (ii)), five Pseudomonas aeruginosa, Pseudomonas aeruginosa 1, Pseudomonas aeruginosa 6, Pseudomonas aeruginosa 8. Pseudomonas aeruginosa 9 and Pseudomonas aeruginosa 12, totally 9 clinical strains. The MRSA and MSSA clinical strains were tested by the same method as Staphylococcus aureus ATCC29213, and Pseudomonas clinical strains were tested by the same method as Pseudomonas aeruginosa ATCC 27853.
(§4) Each of the peptide solutions to be tested was diluted with MHB to obtain a solution of 128 μg/mL. This solution was serially diluted with the medium to prepare peptide-containing media having concentrations of 128, 64, 32, 16, 8.0, 4.0 and 2.0 μg/mL respectively. […] By dilution with sterilized purified water to 1.0 mg/mL, positive control-containing media having concentrations of 16, 8, 4, 2, 1.0, 0.25, 0.12 and 0.06 μg/mL, respectively for TOB; 0.5, 0.12 and 0.06 μg/mL, respectively, for OX; and 16, 8, 4, 2, 1.0, 0.25, 0.12, 0.06, 0.06, 0.03 and 0.008 μg/mL, respectively, for MEPM, were prepared.
(§5) To a 96-well microtiter plate, 0.1 mL of the inoculation solution and 0.1 mL of the peptide- or positive control-containing medium having the respective concentration were added, and cultured at 37° C. for 16 to 24 hours (or a time period suited for the growth of the respective strain). The well not containing the sample was used as a negative control. After the culturing, the growth was visually observed, and the minimum concentration at which the growth was inhibited was defined as the minimum growth inhibition concentration (MIC).
(§6) The medium used in this test for bacteria was Mueller-Hinton broth. Independent experiments were carried out twice or more for each strain.

[5] = system: Pseudomonas aeruginosa 9 (clinical strain); assay: microbe, parasite or virus in culture; conditions: for MIC: Pseudomonas aeruginosa, read-out: MIC Pseudomonas aeruginosa 9
Description: as §2, §3, §4, §5, §6

[6] = system: Pseudomonas aeruginosa 12 (clinical strain); assay: microbe, parasite or virus in culture; conditions: for MIC: Pseudomonas aeruginosa, read-out: MIC Pseudomonas aeruginosa 12
Description: as §2, §3, §4, §5, §6

[7] = system: Pseudomonas aeruginosa 6 (clinical strain); assay: microbe, parasite or virus in culture; conditions: for MIC: Pseudomonas aeruginosa, read-out: MIC Pseudomonas aeruginosa 6
Description: as §2, §3, §4, §5, §6

[8] = system: Trichophyton mentagrophytes NBRC6124; conditions: NBRC6124
[9] = system: Acinetobacter baumanni JCM6841
[10] = system: Bacteroides fragilis JCM 11019; conditions: JCM 11019
[11] = system: Aspergillus niger NBRC 9455
[12] = system: Fusobacterium nucleatum JCM 11025
[13] = system: Salmonella enteritidis IID 604
[14] = Table 4, two tests, first/second value where not identical
[15] = Table 4, clinical strain, first/second value where not identical

| Compound | MIC Trichophyton mentagrophytes [8] [µg/mL] | MIC Acinetobacter baumanni ([9]; JCM6841) [µg/mL] | MIC Fusarium solani (Fusarium solani JCM11383; [14]) | MIC Bacteroides fragilis [10] [µg/mL] | MIC Aspergillus niger [11, 14] | Pseudomonas aeruginosa ATP (viability, relative value to negative control) [1] | Escherichia coli ATP (viability, relative value to negative control) [2] | Staphylococcus aureus ATP (viability, relative value to negative control) [3] | MIC Pseudomonas aeruginosa 9 [5, 15] | MIC Pseudomonas aeruginosa 12 [6, 15] | MIC Fusobacterium nucleatum ([12]; JCM 11025) [µg/mL] | MIC Fusarium solani (Fusarium solani JCM11383; JCM11383) [µg/mL] | MIC Pseudomonas aeruginosa 6 [7, 15] | MIC Salmonella Enteritidis ([13]; IID 604) [µg/mL] | MIC Pseudomonas aeruginosa 1 [4, 15] | other results |
| --- | --- | --- | --- | --- | --- | --- | --- | --- | --- | --- | --- | --- | --- | --- | --- | --- |
| C[C@@H](O)[C@H]1C(=O)N2C(C(=O)O)=C(S[C@@H]3CN[C@H](C(=O)N(C)C)C3)[C@H](C)[C@H]12 [meropenem, reference compound] | – | – | – | – | – | – | – | – | – | – | – | – | – | – | – | viability at 10 µg/mL [1]: 16.1%; viability at 10 µg/mL [2]: 15.3%; viability at 10 µg/mL [3]: 15.7%; MIC [4]: < 4000 µg/mL; MIC [5]: < 4000 µg/mL; MIC [6]: < 4000 µg/mL; MIC [7]: 8 to 16 µg/mL (≈ 0.0209 to 0.0417 mM) |
| NC[C@H]1O[C@H](O[C@H]2[C@H](O)[C@@H](O[C@H]3O[C@H](CO)[C@@H](O)[C@H](N)[C@H]3O)[C@H](N)C[C@@H]2N)[C@H](N)C[C@@H]1O [tobramycin, reference compound] | – | – | – | – | – | – | – | – | – | – | – | – | – | – | – | viability at 10 µg/mL [1]: 1.2%; viability at 10 µg/mL [2]: 74.3%; viability at 10 µg/mL [3]: 6.7%; MIC [4]: > 16000 µg/mL; MIC [5]: < 4000 µg/mL; MIC [6]: < 4000 µg/mL; MIC [7]: < 4000 µg/mL |
| GRLKRMGERLKRKIQKWIRW-NH2 [SRP-15] | 32 | 32 | 16/32 | 16 | 8/16 | 1.6 | 0.5 | 0.3 | 8/64 | 8/16 | 4 | – | – | – | – | MIC Pseudomonas aeruginosa 1 ([4]; 1 (clinical strain)): 16 µg/mL; MIC Pseudomonas aeruginosa 6 ([7]; 6 (clinical strain)): 16 µg/mL; MIC Salmonella Enteritidis [13, 14]: 8/16 |
| GRLKRMGKRLKRKIQKWARW-NH2 [SRP-14] | 16 | 64 | – | 128 | 4/8 | 1.0 | 1.2 | 0.3 | 16/32 | 8/16 | 4 | 4 | 8/16 | 4 | – | MIC Pseudomonas aeruginosa 1 ([4]; 1 (clinical strain)): 16 µg/mL |
| IFLHRLKRMRKRLKRKLRLW-OH [SRP-7] | 32 | 128 | – | 128 | 8/16 | 1.0 | 1.6 | 0.2 | 64/128 | – | 4 | 8 | 16/64 | 4 | 32/64 | MIC Pseudomonas aeruginosa 12 ([6]; 12 (clinical strain)): 16 µg/mL |
| KLIFLHRLKRELRKRLKRKLR-NH2 [SRP-13] | 32 | – | 4/8 | 64 | – | 2.2 | 2.2 | 2.0 | – | 8/16 | 4 | – | 8/16 | 4 | 16/32 | MIC Acinetobacter baumanni [9, 14]: 16/32; MIC Aspergillus niger ([11]; NBRC 9455): 16 µg/mL; MIC Pseudomonas aeruginosa 9 ([5]; 9 (clinical strain)): 64 µg/mL |
| KLIFLRELRRLRKRLKRKLR-NH2 [SRP-16] | 32 | 128 | 4/8 | 32 | 8/16 | 1.0 | 0.9 | 0.4 | – | 8/16 | 128 | – | – | 4 | 16/32 | MIC Pseudomonas aeruginosa 9 ([5]; 9 (clinical strain)): 64 µg/mL; MIC Pseudomonas aeruginosa 6 ([7]; 6 (clinical strain)): 16 µg/mL |
| KNLRRIIRKIIHIIKKYG-NH2 [Ovispirin-1, reference compound] | 32 | – | 4/8 | 1 | – | – | – | – | 32/128 | 16/32 | – | – | 32/64 | 16 | 16/64 | MIC Acinetobacter baumanni [9, 14]: 4/8; MIC Aspergillus niger ([11]; NBRC 9455): 32 µg/mL; MIC Fusobacterium nucleatum [12, 14]: 2/4 |
| LIFLHRLKRMRKRLKRKLRL-NH2 [SRP-12] | – | – | – | – | 8/16 | 1.0 | 6.5 | 0.2 | 16/64 | – | – | – | 32/64 | – | 16/32 | MIC Pseudomonas aeruginosa 12 ([6]; 12 (clinical strain)): 16 µg/mL |
| RLKRMRKRLKRKLRLW-NH2 [SRP-17] | 16 | 128 | – | > 128 | 8/16 | 1.0 | 0.4 | 0.3 | 64/128 | 16/64 | > 128 | 8 | 32/64 | 8 | 32/64 | – |
| RLKRMRKRLKRKLRLWHRKRYK-NH2 [SRP-8] | 32 | 128 | – | > 128 | 16/32 | 0.9 | 1.7 | 0.4 | 16/64 | 16/32 | > 128 | 4 | – | 64 | 16/32 | MIC Pseudomonas aeruginosa 6 ([7]; 6 (clinical strain)): 16 µg/mL |
